Measured values reported in patent publication US11000033B2, “Ketone or oxime compound, and herbicide” (NISSAN CHEMICAL CORPORATION, priority 2014, dated 2021).

Columns and labels:
Format in all cases: in vivo
rice = test: Test Example 4: effect on crop by soil treatment (symbol b); settings: for b: directly sowed rice plant, effect grade on crop: 320 g/ha; for b: directly sowed rice plant, effect on crop grade: application herbicide amount 320 g/ha
Procedure, shortened: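 Crop seed is sown in spots together with several weed species in a box of sterilized diluvial soil. It is covered by about 1.5 cm of soil and kept in a greenhouse held between 25° C. and 30° C.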

[1] = tested on: Echinochloa oryzacola Vasing.; test: Test Example 2: herbicidal activity, application during weed generation in submerged conditions (symbol A); settings: Table 23; application herbicide amount 320 g/ha; grade 0-5 by criteria of Test Example 1
Procedure, shortened: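 Seeds sown in flooded alluvial soil (4 cm water) were grown in a 25-30° C greenhouse. At the one- to two-leaf stage, diluted emulsion of compound was applied to the water surface at a predetermined rate. Effect was scored 3 weeks later.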

Amaranthus retroflexus = test: Test Example 5: herbicidal effect by foliage application, plastic box (symbol N); settings: 320 g/ha, 3 weeks after application
Procedure, shortened: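 Greenhouse foliar test: seedlings at 14 days, grown 25° C. to 30° C. in sterilized diluvial soil; compound applied as an aqueous dilution of an emulsion; response read 3 weeks after spraying.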

| Structure (SMILES) | b: directly sowed rice plant, effect grade on crop (rice) | Herbicidal effect grade, A: Echinochloa oryzacola Vasing. [1] | N: Amaranthus retroflexus, herbicidal effect (criteria 0-5) (Amaranthus retroflexus) | N: Amaranthus retroflexus, herbicidal effect grade (Amaranthus retroflexus) | b: directly sowed rice plant, effect on crop grade (rice) |
| --- | --- | --- | --- | --- | --- |
| CON=C(C)CC1CC(OS(=O)(=O)CCCCl)=C(c2c(C)cc(C)cc2C)C1=O (stereo not drawn) [1-142] | 5 (Herbicidal ratio of 90% or more (almost completely withered)) | 5 (Herbicidal ratio of 90% or more (almost completely withered)) | 0 (Herbicidal ratio of 5% or lower (almost no effect)) |  |  |
| CON=C(C)CC1CC(OS(=O)(=O)C2CC2)=C(c2c(C)cc(C)cc2C)C1=O (stereo not drawn) [1-143] | 0 (Herbicidal ratio of 5% or lower (almost no effect)) | 4 (Herbicidal ratio of 70% or higher and lower than 90%) | 1 (Herbicidal ratio of 5% or higher and lower than 20%) |  |  |
| CON=C(C)CC1CC(OS(=O)(=O)CC[Si](C)(C)C)=C(c2c(C)cc(C)cc2C)C1=O (stereo not drawn) [1-144] | 5 (Herbicidal ratio of 90% or more (almost completely withered)) | 5 (Herbicidal ratio of 90% or more (almost completely withered)) | 1 (Herbicidal ratio of 5% or higher and lower than 20%) |  |  |
| CON=C(C)CC1CC(OC(=O)OCc2ccccc2)=C(c2c(C)cc(C)cc2C)C1=O (stereo not drawn) [1-145] | 5 (Herbicidal ratio of 90% or more (almost completely withered)) | 5 (Herbicidal ratio of 90% or more (almost completely withered)) | 0 (Herbicidal ratio of 5% or lower (almost no effect)) |  |  |
| C=CCOC(=O)OC1=C(c2c(C)cc(C)cc2C)C(=O)C(CC(C)=NOC)C1 (stereo not drawn) [1-146] | 5 (Herbicidal ratio of 90% or more (almost completely withered)) | 5 (Herbicidal ratio of 90% or more (almost completely withered)) | 0 (Herbicidal ratio of 5% or lower (almost no effect)) |  |  |
| COCCOC(=O)OC1=C(c2c(C)cc(C)cc2C)C(=O)C(CC(C)=NOC)C1 (stereo not drawn) [1-147] | 5 (Herbicidal ratio of 90% or more (almost completely withered)) | 5 (Herbicidal ratio of 90% or more (almost completely withered)) | 1 (Herbicidal ratio of 5% or higher and lower than 20%) |  |  |
| CON=C(C)CC1CC(OC(=O)C(C)(C)c2ccc(Cl)cc2)=C(c2c(C)cc(C)cc2C)C1=O (stereo not drawn) [1-148] | 5 (Herbicidal ratio of 90% or more (almost completely withered)) | 5 (Herbicidal ratio of 90% or more (almost completely withered)) | 2 (Herbicidal ratio of 20% or higher and lower than 40%) |  |  |
| CON=C(C)CC1CC(OC(=O)c2ccc(C(F)(F)F)cc2)=C(c2c(C)cc(C)cc2C)C1=O (stereo not drawn) [1-149] | 5 (Herbicidal ratio of 90% or more (almost completely withered)) | 5 (Herbicidal ratio of 90% or more (almost completely withered)) | 0 (Herbicidal ratio of 5% or lower (almost no effect)) |  |  |
| CON=C(C)CC1CC(OC(=O)N2CCCC2)=C(c2c(C)cc(C)cc2C)C1=O (stereo not drawn) [1-150] | 0 (Herbicidal ratio of 5% or lower (almost no effect)) | 5 (Herbicidal ratio of 90% or more (almost completely withered)) | 0 (Herbicidal ratio of 5% or lower (almost no effect)) |  |  |
| CON=C(C)CC1CC(OC(=O)N2CCCCC2)=C(c2c(C)cc(C)cc2C)C1=O (stereo not drawn) [1-151] | 1 (Herbicidal ratio of 5% or higher and lower than 20%) | 5 (Herbicidal ratio of 90% or more (almost completely withered)) | 0 (Herbicidal ratio of 5% or lower (almost no effect)) |  |  |
| CON=C(C)CC1CC(OC(=O)N2CCN(C)CC2)=C(c2c(C)cc(C)cc2C)C1=O (stereo not drawn) [1-152] | 0 (Herbicidal ratio of 5% or lower (almost no effect)) | 2 (Herbicidal ratio of 20% or higher and lower than 40%) | 3 (Herbicidal ratio of 40% or higher and lower than 70%) |  |  |
| C=CCN(CC=C)C(=O)OC1=C(c2c(C)cc(C)cc2C)C(=O)C(CC(C)=NOC)C1 (stereo not drawn) [1-153] | 1 (Herbicidal ratio of 5% or higher and lower than 20%) | 4 (Herbicidal ratio of 70% or higher and lower than 90%) | 4 (Herbicidal ratio of 70% or higher and lower than 90%) |  |  |
| CON=C(C)CC1CC(OC(=O)c2ccccc2C(F)(F)F)=C(c2c(C)cc(C)cc2C)C1=O (stereo not drawn) [1-154] | 5 (Herbicidal ratio of 90% or more (almost completely withered)) | 5 (Herbicidal ratio of 90% or more (almost completely withered)) | 3 (Herbicidal ratio of 40% or higher and lower than 70%) |  |  |
| CON=C(C)CC1CC(OC(=O)c2ccccc2OC(F)(F)F)=C(c2c(C)cc(C)cc2C)C1=O (stereo not drawn) [1-155] | 5 (Herbicidal ratio of 90% or more (almost completely withered)) | 5 (Herbicidal ratio of 90% or more (almost completely withered)) | 2 (Herbicidal ratio of 20% or higher and lower than 40%) |  |  |
| CON=C(C)CC1CC(OC(=O)Cc2ccc(OC)cc2)=C(c2c(C)cc(C)cc2C)C1=O (stereo not drawn) [1-156] | 5 (Herbicidal ratio of 90% or more (almost completely withered)) | 5 (Herbicidal ratio of 90% or more (almost completely withered)) |  | 3 (Herbicidal ratio of 40% or higher and lower than 70%) |  |
| CON=C(C)CC1CC(OC(=O)N(C)c2ccccc2)=C(c2c(C)cc(C)cc2C)C1=O (stereo not drawn) [1-159] | 3 (Herbicidal ratio of 40% or higher and lower than 70%) | 4 (Herbicidal ratio of 70% or higher and lower than 90%) |  | 3 (Herbicidal ratio of 40% or higher and lower than 70%) |  |
| CON=C(C)CC1CC(OC(=O)c2c(Cl)nn(C)c2Cl)=C(c2c(C)cc(C)cc2C)C1=O (stereo not drawn) [1-160] | 5 (Herbicidal ratio of 90% or more (almost completely withered)) | 5 (Herbicidal ratio of 90% or more (almost completely withered)) |  | 0 (Herbicidal ratio of 5% or lower (almost no effect)) |  |
| CON=C(C)CC1CC(OS(=O)(=O)c2ccc(C)cc2)=C(c2c(C)cc(C)cc2C)C1=O (stereo not drawn) [1-161] | 3 (Herbicidal ratio of 40% or higher and lower than 70%) | 5 (Herbicidal ratio of 90% or more (almost completely withered)) |  | 0 (Herbicidal ratio of 5% or lower (almost no effect)) |  |
| CON=C(C)CC1CC(OC(=O)c2ccc(S(C)(=O)=O)c(C(=O)OC)c2Cl)=C(c2c(C)cc(C)cc2C)C1=O (stereo not drawn) [1-162] | 5 (Herbicidal ratio of 90% or more (almost completely withered)) | 5 (Herbicidal ratio of 90% or more (almost completely withered)) |  | 1 (Herbicidal ratio of 5% or higher and lower than 20%) |  |
| CON=C(C)CC1CC(OC(=O)C(C)Oc2ccc(Oc3ccc(Cl)cc3Cl)cc2)=C(c2c(C)cc(C)cc2C)C1=O (stereo not drawn) [1-163] | 5 (Herbicidal ratio of 90% or more (almost completely withered)) | 5 (Herbicidal ratio of 90% or more (almost completely withered)) |  | 3 (Herbicidal ratio of 40% or higher and lower than 70%) |  |
| CC(=O)C(C(C)=O)C1CC(O)=C(c2c(C)cc(C)cc2C)C1=O (stereo not drawn) [2-002] | 1 (Herbicidal ratio of 5% or higher and lower than 20%) | 0 (Herbicidal ratio of 5% or lower (almost no effect)) |  | 0 (Herbicidal ratio of 5% or lower (almost no effect)) |  |
| COC(=O)C(C(C)=O)C1CC(O)=C(c2c(C)cc(C)cc2C)C1=O (stereo not drawn) [2-003] | 2 (Herbicidal ratio of 20% or higher and lower than 40%) | 0 (Herbicidal ratio of 5% or lower (almost no effect)) |  | 0 (Herbicidal ratio of 5% or lower (almost no effect)) |  |
| CCC(=O)CC1CC(O)=C(c2c(C)cc(C)cc2C)C1=O (stereo not drawn) [2-006] |  | 5 (Herbicidal ratio of 90% or more (almost completely withered)) |  | 0 (Herbicidal ratio of 5% or lower (almost no effect)) | 5 (Herbicidal ratio of 90% or more (almost completely withered)) |
| COCC(=O)CC1CC(O)=C(c2c(C)cc(C)cc2C)C1=O (stereo not drawn) [2-007] |  | 3 (Herbicidal ratio of 40% or higher and lower than 70%) |  | 0 (Herbicidal ratio of 5% or lower (almost no effect)) | 5 (Herbicidal ratio of 90% or more (almost completely withered)) |
| CCOC(=O)C(C(=O)c1ccccc1)C1CC(O)=C(c2c(C)cc(C)cc2C)C1=O (stereo not drawn) [2-008] |  | 0 (Herbicidal ratio of 5% or lower (almost no effect)) |  | 1 (Herbicidal ratio of 5% or higher and lower than 20%) | 0 (Herbicidal ratio of 5% or lower (almost no effect)) |
